In ChEMBL document CHEMBL3608207, “Synthesis, characterization, evaluation and molecular dynamics studies of 5, 6-diphenyl-1,2,4-triazin-3(2H)-one derivatives bearing 5-substituted 1,3,4-oxadiazole as potential anti-inflammatory and analgesic agents” (Eur J Med Chem, 2015):

Columns and labels:
Rattus norvegicus [1] = assay: Anti-inflammatory activity in rat model of acute inflammation assessed as inhibition of carrageenan-induced paw oedema dosed at 10 mg/kg, po dosed 1 hr before carrageenan injection and measured 3 hrs after carrageenan injection; assay type: functional
Rattus norvegicus [2] = assay: Anti-inflammatory activity in rat model of acute inflammation assessed as inhibition of carrageenan-induced paw oedema dosed at 10 mg/kg, po dosed 1 hr before carrageenan injection and measured 4 hrs after carrageenan injection; assay type: functional
Rattus norvegicus [3] = assay: Anti-inflammatory activity in rat model of acute inflammation assessed as inhibition of carrageenan-induced paw oedema dosed at 10 mg/kg, po dosed 1 hr before carrageenan injection and measured 5 hrs after carrageenan injection; assay type: functional
Rattus norvegicus [4] = assay: Anti-inflammatory activity in rat model of acute inflammation assessed as inhibition of carrageenan-induced paw oedema dosed at 10 mg/kg, po dosed 1 hr before carrageenan injection and measured 6 hrs after carrageenan injection; assay type: functional
Rattus norvegicus [5] = assay: Anti-inflammatory activity in rat assessed as inhibition of arachidonic acid-induced paw edema at 10 mg/kg, po dosed 30 mins before arachidonic acid injection and measured 1 hr after arachidonic acid injection; assay type: functional
Rattus norvegicus [6] = assay: Anti-inflammatory activity in rat Freund's adjuvant induced arthritis model of chronic inflammation assessed as inhibition of right hind paw swelling at 10 mg/kg, po dosed after 14 days from day of adjuvant injection until day 21 and measured on day 3; assay type: functional
Rattus norvegicus [7] = assay: Anti-inflammatory activity in rat Freund's adjuvant induced arthritis model of chronic inflammation assessed as inhibition of right hind paw swelling at 10 mg/kg, po dosed after 14 days from day of adjuvant injection until day 21 and measured on day 6; assay type: functional
Rattus norvegicus [8] = assay: Anti-inflammatory activity in rat Freund's adjuvant induced arthritis model of chronic inflammation assessed as inhibition of right hind paw swelling at 10 mg/kg, po dosed after 14 days from day of adjuvant injection until day 21 and measured on day 9; assay type: functional
Rattus norvegicus [9] = assay: Anti-inflammatory activity in rat Freund's adjuvant induced arthritis model of chronic inflammation assessed as inhibition of right hind paw swelling at 10 mg/kg, po dosed after 14 days from day of adjuvant injection until day 21 and measured on day 12; assay type: functional
Rattus norvegicus [10] = assay: Anti-inflammatory activity in rat Freund's adjuvant induced arthritis model of chronic inflammation assessed as inhibition of right hind paw swelling at 10 mg/kg, po dosed after 14 days from day of adjuvant injection until day 21 and measured on day 15; assay type: functional
Rattus norvegicus [11] = assay: Anti-inflammatory activity in rat Freund's adjuvant induced arthritis model of chronic inflammation assessed as inhibition of right hind paw swelling at 10 mg/kg, po dosed after 14 days from day of adjuvant injection until day 21 and measured on day 18; assay type: functional
Rattus norvegicus [12] = assay: Anti-inflammatory activity in rat Freund's adjuvant induced arthritis model of chronic inflammation assessed as inhibition of right hind paw swelling at 10 mg/kg, po dosed after 14 days from day of adjuvant injection until day 21 and measured on day 21; assay type: functional
Rattus norvegicus [13] = assay: Gastro-intestinal toxicity in rat Freund's adjuvant induced arthritis model of chronic inflammation assessed as ulcer index at 10 mg/kg, po dosed after 14 days from day of adjuvant injection until day 21 and measured on day 21; assay type: organism-based; details: in vivo, 336 h
Rattus norvegicus [14] = assay: Gastro-intestinal toxicity in rat Freund's adjuvant induced arthritis model of chronic inflammation assessed as assessed as histological changes at 10 mg/kg, po dosed after 14 days from day of adjuvant injection until day 21 and measured on day 21 by hematoxylin and eosin staining based microscopy; assay type: organism-based; details: in vivo, 336 h
Rattus norvegicus [15] = assay: Hepato-toxicity in rat Freund's adjuvant induced arthritis model of chronic inflammation assessed as assessed as SGOT level at 10 mg/kg, po dosed after 14 days from day of adjuvant injection until day 21 and measured on day 21 (reference value: 92.48 +/- 7.8 U/mL); assay type: organism-based; details: in vivo, 336 h
Rattus norvegicus [16] = assay: Hepato-toxicity in rat Freund's adjuvant induced arthritis model of chronic inflammation assessed as assessed as SGPT level at 10 mg/kg, po dosed after 14 days from day of adjuvant injection until day 21 and measured on day 21 (reference value: 34.23 +/- 2.5 U/mL); assay type: organism-based; details: in vivo, 336 h
Rattus norvegicus [17] = assay: Hepato-toxicity in rat Freund's adjuvant induced arthritis model of chronic inflammation assessed as assessed as alkaline phosphatase level at 10 mg/kg, po dosed after 14 days from day of adjuvant injection until day 21 and measured on day 21 (reference value: 17.82 +/- 1.2 U); assay type: organism-based; details: in vivo, 336 h
Rattus norvegicus [18] = assay: Renal toxicity in rat Freund's adjuvant induced arthritis model of chronic inflammation assessed as assessed as total protein level at 10 mg/kg, po dosed after 14 days from day of adjuvant injection until day 21 and measured on day 21 (reference value: 1.78 +/- 0.11 g/dL); assay type: organism-based; details: in vivo, 336 h
Rattus norvegicus [19] = assay: Renal toxicity in rat Freund's adjuvant induced arthritis model of chronic inflammation assessed as assessed as total albumin level at 10 mg/kg, po dosed after 14 days from day of adjuvant injection until day 21 and measured on day 21 (reference value: 1.77 +/- 0.12 g/dL); assay type: organism-based; details: in vivo, 336 h
Rattus norvegicus [20] = assay: Renal toxicity in rat Freund's adjuvant induced arthritis model of chronic inflammation assessed as assessed as creatinine level at 10 mg/kg, po dosed after 14 days from day of adjuvant injection until day 21 and measured on day 21 (reference value: 0.62 +/- 0.049 mg/dL); assay type: organism-based; details: in vivo, 336 h
Rattus norvegicus [21] = assay: Renal toxicity in rat Freund's adjuvant induced arthritis model of chronic inflammation assessed as assessed as blood urea nitrogen level at 10 mg/kg, po dosed after 14 days from day of adjuvant injection until day 21 and measured on day 21 (reference value: 23.48 +/- 1.8 mg/dL); assay type: organism-based; details: in vivo, 336 h
Rattus norvegicus [22] = assay: Hepato-toxicity in rat Freund's adjuvant induced arthritis model of chronic inflammation assessed as assessed as histological changes at 10 mg/kg, po dosed after 14 days from day of adjuvant injection until day 21 and measured on day 21 by hematoxylin and eosin staining based microscopy; assay type: organism-based; details: in vivo, 336 h
Rattus norvegicus [23] = assay: Renal toxicity in rat Freund's adjuvant induced arthritis model of chronic inflammation assessed as assessed as histological changes at 10 mg/kg, po dosed after 14 days from day of adjuvant injection until day 21 and measured on day 21 by hematoxylin and eosin staining based microscopy; assay type: organism-based; details: in vivo, 336 h
Mus musculus [24] = assay: Analgesic activity in Swiss albino mouse assessed as reduction in number of writhing episodes at 10 mg/kg, po measured 30 mins following acetic acid injection; assay type: functional; details: 0.5 h
Mus musculus [25] = assay: Analgesic activity in Swiss albino mouse assessed as reduction in formalin-induced paw licking by measuring time spent on licking during phase-1 at 10 mg/kg, po dosed 1 hr before formalin challenge and measured 30 mins after formalin injection; assay type: functional
Mus musculus [26] = assay: Analgesic activity in Swiss albino mouse assessed as reduction in formalin-induced paw licking by measuring time spent on licking during phase-2 at 10 mg/kg, po dosed 1 hr before formalin challenge and measured 30 mins after formalin injection; assay type: functional
[27] = In-vitro antiinflammatory activity assessed as inhibition of denaturation of bovine serum albumin at 10 mg; assay type: functional
Rattus norvegicus [28] = assay: Anti-inflammatory activity in rat model of acute inflammation assessed as inhibition of carrageenan-induced paw oedema dosed at 10 mg/kg, po dosed 1 hr before carrageenan injection and measured 1 hr after carrageenan injection; assay type: functional
Rattus norvegicus [29] = assay: Anti-inflammatory activity in rat model of acute inflammation assessed as inhibition of carrageenan-induced paw oedema dosed at 10 mg/kg, po dosed 1 hr before carrageenan injection and measured 2 hrs after carrageenan injection; assay type: functional

SMILES: COc1ccc2c(c1)c(CC(=O)O)c(C)n2C(=O)c1ccc(Cl)cc1 [INDOMETHACIN]
- inhibition in vivo at 10 mg/kg (Rattus norvegicus [1]): 60.5%
- inhibition in vivo at 10 mg/kg (Rattus norvegicus [2]): 60%
- inhibition in vivo at 10 mg/kg (Rattus norvegicus [3]): 62.6%
- inhibition in vivo at 10 mg/kg (Rattus norvegicus [4]): 57.8%
- inhibition in vivo at 10 mg/kg (Rattus norvegicus [5]): 21.1%
- inhibition in vivo at 10 mg/kg (Rattus norvegicus [6]): 33.1%
- inhibition in vivo at 10 mg/kg (Rattus norvegicus [7]): 39.7%
- inhibition in vivo at 10 mg/kg (Rattus norvegicus [8]): 42.4%
- inhibition in vivo at 10 mg/kg (Rattus norvegicus [9]): 45.9%
- inhibition in vivo at 10 mg/kg (Rattus norvegicus [10]): 51.3%
- inhibition in vivo at 10 mg/kg (Rattus norvegicus [11]): 54.2%
- inhibition in vivo at 10 mg/kg (Rattus norvegicus [12]): 56.8%
- UI (Rattus norvegicus [13]): 52
- Activity (Rattus norvegicus [14]): Toxic
- Activity (Rattus norvegicus [15]): 121.56 U/ml
- Activity (Rattus norvegicus [16]): 52.83 U/ml
- Activity (Rattus norvegicus [17]): 26.24 U
- Activity (Rattus norvegicus [18]): 2.24 g/dL
- Activity (Rattus norvegicus [19]): 2.08 g/dL
- Activity (Rattus norvegicus [20]): 1.84 mg/dL
- Activity (Rattus norvegicus [21]): 62.74 mg/dL
- Activity (Rattus norvegicus [22]): Toxic
- Activity (Rattus norvegicus [23]): Toxic
- inhibition in vivo at 10 mg/kg (Mus musculus [24]): 77.3%
- inhibition in vivo at 10 mg/kg (Mus musculus [25]): 15.6%
- inhibition in vivo at 10 mg/kg (Mus musculus [26]): 82.2%
- inhibition [27]: 84.9%
- inhibition in vivo at 10 mg/kg (Rattus norvegicus [28]): 57.6%
- inhibition in vivo at 10 mg/kg (Rattus norvegicus [29]): 59.5%
